From ChEMBL document CHEMBL1641443, “Design, synthesis and biological evaluation of small molecule inhibitors of CD4-gp120 binding based on virtual screening” (Bioorg Med Chem, 2011)

System: Human immunodeficiency virus 1
Assay: Antiviral activity against recombinant HIV1 YU2 in Cf2Th-CCR5 cells assessed as viral infectivity by luciferase assasy relative to JRC-II-191; also: test concentration or dose not given here
Type: functional, isolate YU2

Structure (SMILES)	fold change (FC)
Cc1cc(Cl)ccc1NC(=O)C(=O)NC1CC(C)(C)NC(C)(C)C1	0
N=c1oc2cc(O)ccc2cc1C(=O)Nc1ccc(Cl)cc1	0
CC1(C)Cc2c(sc(NC(=O)C(=O)Nc3ccc(Cl)c(F)c3)c2C#N)C(C)(C)N1	0
NC(=O)C1CCN(CCC(=O)Nc2ccc(Br)cc2)CC1	0
CC1(C)CC(NC(=O)C(=O)Nc2ccc(Cl)cc2Cl)CC(C)(C)N1	0
CC1(C)CC(NC(=O)C(=O)Nc2ccc3cc[nH]c3c2)CC(C)(C)N1	0
O=C(Nc1ccc(Br)cc1)c1cc(CN2CCCC2)on1	0
O=C(NCc1ccccc1CN1CCOCC1)C(=O)Nc1ccc(Cl)c(F)c1	0.5
CC1CCCN(CCC(=O)Nc2ccc(Br)cc2)C1 (configuration not stated)	0
CC1(C)CC(NC(=O)C(=O)Nc2ccc(Cl)c(F)c2)CC(C)(C)N1	1
CC1(C)CC(NC(=O)C(=O)Nc2cccc(OCc3ccccc3)c2)CC(C)(C)N1	0
COc1cc(NC(=O)C(=O)NC2CC(C)(C)NC(C)(C)C2)ccc1Cl	0
C[C@@H]1CN(CCC(=O)Nc2ccc(Br)cc2)C[C@H](C)O1	0
O=C(Nc1ccc(Cl)c(F)c1)C(=O)NC1CCN(C2CCCCC2)C1 (configuration not stated)	0.48
CC(C)Oc1cc(NC(=O)C(=O)NC2CC(C)(C)NC(C)(C)C2)ccc1Cl	0
CC(C)(C)OC(=O)N1CCC(NC(=O)C(=O)Nc2ccc(Cl)c(F)c2)CC1	0
CC(CC(=O)Nc1ccc(Br)cc1)Nc1cccc(CO)c1 (configuration not stated)	0
Nc1ccc(C(=O)CC(=O)Nc2ccc(Cl)cc2)cc1	0
CC1Sc2cc(C(=O)NC3CC(C)(C)NC(C)(C)C3)ccc2NC1=O (configuration not stated)	0
CC(C)c1cccc(NC(=O)C(=O)NC2CC(C)(C)NC(C)(C)C2)c1	0
O=C(Nc1ccc(Cl)cc1)C(=O)c1c[nH]c2ccccc12	0
CC(C)c1ccccc1NC(=O)C(=O)NC1CC(C)(C)NC(C)(C)C1	0

Structure (SMILES)	fold change (FC)
CN1CCC(NC(=O)Nc2ccc(Cl)cc2Cl)CC1	0
O=C(NCC1OCCc2ccccc21)C(=O)Nc1ccc(Br)cc1 (configuration not stated)	0
O=C(NCC1COc2ccccc2O1)C(=O)Nc1ccc(Br)cc1 (configuration not stated)	0
CC1(C)CC(NC(=O)C(=O)Nc2ccc(Cl)c(OCc3ccccc3)c2)CC(C)(C)N1	0
CC1(C)CC(NC(=O)C(=O)Nc2ccc(Cl)c(F)c2)CC(C)(C)[N+]1(C)[O-] (configuration not stated)	0.23
O=C(CSc1nc(=O)[nH]c2c1CCCC2)Nc1ccc(Cl)cc1	0
O=C(NCc1ccco1)C(=O)Nc1ccc(Br)cc1	0
CN(C)C(CNC(=O)C(=O)Nc1ccc(Cl)c(F)c1)N1CCCC1 (configuration not stated)	0
CC1(C)OC(=O)N(CCC(=O)Nc2ccc(Cl)cc2)[C@@]1(C)O	0
CC1(C)CC(=NNC(=O)c2n[nH]c3c2CCCC3)CC(C)(C)N1	0
Cc1cc(OCC(=O)NCc2nc[nH]n2)ccc1Cl	0
CC1(C)CC(NC(=O)C(=O)NCCc2ccc(Cl)cc2)CC(C)(C)N1	0
COc1cccc(NC(=O)C(=O)Nc2ccc(Cl)cc2)c1	0
CC1(C)CC(NCC(=O)Nc2ccc(Cl)c(F)c2)CC(C)(C)N1	0
CC1(C)CC(NC(=O)C(=O)Nc2ccc(Cl)cc2OCc2ccccc2)CC(C)(C)N1	0
CCN1CCCC1CNC(=O)C(=O)Nc1ccc(Cl)cc1 (configuration not stated)	0
CC(NC(=O)C(=O)Nc1ccc(Cl)c(F)c1)C(c1ccccc1Cl)N1CCOCC1 (configuration not stated)	0
Cn1ccnc1C(O)(CCNC(=O)C(=O)Nc1ccc(Cl)c(F)c1)C(F)(F)F (configuration not stated)	0
Cc1ccc(C(C)C)c(OCC(=O)NNC(=O)Nc2ccc(Cl)cc2)c1	0
O=C(Nc1ccc(Cl)c(F)c1)C(=O)Nc1cnn2c1NCCC2	0
CN(C(=O)C(=O)NC1CC(C)(C)NC(C)(C)C1)c1ccc(Cl)cc1	0
CN1CCCN(C(=O)COc2ccc(Cl)cc2)CC1	0

Structure (SMILES)	fold change (FC)
CC1(C)CC(NC(=O)C(=O)Nc2ccc(N=[N+]=[N-])cc2)CC(C)(C)N1	0
O=C(Nc1ccc(Cl)c(F)c1)C(=O)NC1CCN(C(=O)c2ccccc2)CC1	0
CN1CCC(CNC(=O)C(=O)Nc2ccc(Cl)c(F)c2)(N(C)C)CC1	0.1
C[C@H](Sc1nc(N)cc(N)n1)C(=O)Nc1ccc(Cl)cc1	0
O=C(NCC1CCN(C2CC2)C1)C(=O)Nc1ccc(Cl)c(F)c1 (configuration not stated)	0.3
O=C(Nc1ccc(Cl)c(F)c1)C(=O)Nc1cccc2[nH]ncc12	0
CC(NC(=O)C(=O)Nc1ccc(Cl)c(F)c1)c1ccc2c(c1)NC(=O)CO2 (configuration not stated)	0
CCOc1cc(Cl)ccc1NC(=O)C(=O)NC1CC(C)(C)NC(C)(C)C1	0
O=C(Nc1ccc(Br)cc1)C(=O)Nc1cccc2ccccc12	0
COc1cc(Cl)ccc1NC(=O)C(=O)NC1CC(C)(C)NC(C)(C)C1	0
CC(NC(=O)C(=O)Nc1ccc(Cl)c(F)c1)c1ccc(S(N)(=O)=O)cc1 (configuration not stated)	0
Cc1ccc(N(C)C)cc1NC(=O)COc1ccc(Cl)cc1	0
O=C(Nc1ccc2c(c1)C(=O)NC2=O)c1ccc(Cl)c(Cl)c1	0
O=C(Nc1cc[nH]c(=O)n1)c1sc2cc(Cl)ccc2c1Cl	0
O=C(Nc1ccc(Cl)cc1)c1cc(-n2cnnc2)[nH]n1	0
O=C(COC(=O)c1n[nH]c2ccccc12)Nc1ccc(Cl)cn1	0
CCN=C(S)N1CCN(CC(=O)Nc2ccc(Br)cc2)CC1	0
COc1cccc(CNC(=O)C(=O)Nc2ccc(Cl)cc2)c1	0
CNS(=O)(=O)Cc1ccc(CNC(=O)C(=O)Nc2ccc(Cl)c(F)c2)cc1	0
CC1(C)CC(NC(=O)C(=O)Nc2ccc(Cl)cc2)CC(C)(C)N1	1
Cc1cc(NC(=O)C(=O)c2c[nH]c3ccccc23)ccc1Br	0
CC1(C)CC(=O)c2cc(C(=O)Nc3ccc(Cl)cc3)c(=O)[nH]c2C1	0

Structure (SMILES)	fold change (FC)
CC1(C)CC(NC(=O)C(=O)Nc2c[nH]c3ncccc23)CC(C)(C)N1	0
CC1(C)CC(NC(=O)C(=O)Nc2ccc(-n3cc(-c4ccccc4)nn3)cc2)CC(C)(C)N1	0
O=C(Nc1ccc(Cl)cc1)Nc1ncnc2[nH]cnc12	0
O=C(Nc1ccc(Cl)cc1)c1cc2c([nH]c1=O)CCCC2	0
O=C(COc1ccc(Cl)cc1)Nc1cc(=O)[nH]c(=O)[nH]1	0
CC1(C)CC(NC(=O)CCC(=O)Nc2ccc(Br)cc2)CC(C)(C)N1	0
CN1CCCC(ONC(=O)C(=O)Nc2ccc(Cl)c(F)c2)C1 (configuration not stated)	0
O=C(NCc1n[nH]c2c1CCCCC2)C(=O)Nc1ccc(Cl)c(F)c1	0.1
CC1(C)CC(NC(=O)C(=O)Nc2ccc(-n3cc(CCCCCO)nn3)cc2)CC(C)(C)N1	0
CC1CCCCN1C(C)CNC(=O)C(=O)Nc1ccc(Cl)c(F)c1 (configuration not stated)	0
CC(C)(C)c1cc(CNC(=O)C(=O)Nc2ccc(Cl)c(F)c2)n[nH]1	0.1
O=C(NC[C@@H]1COC2(CCCC2)O1)C(=O)Nc1ccc(Cl)cc1	0
CN(C)C(CNC(=O)C(=O)Nc1ccc(Cl)c(F)c1)c1ccco1 (configuration not stated)	0
O=C(NCC(c1ccco1)N1CCCC1)C(=O)Nc1ccc(Cl)c(F)c1 (configuration not stated)	0
CN(C(=O)C(=O)Nc1ccc(Cl)c(F)c1)C1CC(C)(C)NC(C)(C)C1	0
CC1(C)CC(NC(=O)CC(=O)Nc2ccc(Br)cc2)CC(C)(C)N1	0
Nc1ncc(CNC(=O)C(=O)Nc2ccc(Cl)c(F)c2)cn1	0
O=C(NCCc1cnc[nH]1)Nc1ccc(Cl)c(Cl)c1	0
CC(C)(CNC(=O)C(=O)Nc1ccc(Cl)c(F)c1)N1CCOCC1	0
CCN(CC)C(CNC(=O)C(=O)Nc1ccc(Cl)c(F)c1)CC(C)C (configuration not stated)	0
CN1CCN(C(CNC(=O)C(=O)Nc2ccc(Cl)c(F)c2)c2ccccc2Cl)CC1 (configuration not stated)	0.11
O=C(COc1ccc(Cl)cc1)Nc1ccc2[nH]c(=O)[nH]c2c1	0

Structure (SMILES)	fold change (FC)
O=C(Nc1ccc(Cl)c(F)c1)C(=O)N[C@H]1CCN(Cc2ccccc2)C1	0
CCN1CCCC1CNC(=O)C(=O)Nc1c(C(=O)OC)sc(C)c1C (configuration not stated)	0
CCN1CCC(CNC(=O)C(=O)Nc2ccc(Cl)c(F)c2)CC1	0.2
CC1(C)NC(=O)N(C[C@H](O)COc2ccc(Cl)cc2)C1=O	0
CCc1n[nH]c(NC(=O)C(=O)Nc2ccc(Cl)c(F)c2)c1CC	0
O=C(NCc1ccc2c(c1)OCO2)C(=O)Nc1ccc(Br)cc1	0
COc1cccc(N[C@@H](C)C(=O)Nc2ccc(Br)cc2)c1	0
Cc1nn(C)cc1CN(C)CC(=O)Nc1ccc(Br)cc1	0
CCOC(=O)[C@H]1CCCN(CCC(=O)Nc2ccc(Br)cc2)C1	0
O=C(NCC(c1ccc(Cl)cc1)N1CCCC1)C(=O)Nc1ccc(Cl)c(F)c1 (configuration not stated)	0.4
O=C(CN1CCCCCC1)Nc1ccc(Br)cc1	0
CC1(C)CC(NC(=O)C(=O)Nc2ccc(-n3cc(CCc4ccccc4)nn3)cc2)CC(C)(C)N1	0
CC1(C)CC(NC(=O)C(=O)Nc2ccc(Cl)cc2C(F)(F)F)CC(C)(C)N1	0
Cc1cc(SCC(=O)Nc2ccc(Cl)cc2)nc(=O)[nH]1	0
CC(C)C1CCN(CCC(=O)Nc2ccc(Br)cc2)CC1	0
CN1CCN(C(CNC(=O)C(=O)Nc2ccc(Cl)c(F)c2)c2cccs2)CC1 (configuration not stated)	0
O=C(CSCc1cc(O)[nH]n1)Nc1ccc(Br)cc1	0
C[C@H]1CCCN(CCC(=O)Nc2ccc(Cl)cc2)C1	0
O=C(NCC1CCN(CCN2CCOCC2)C1)C(=O)Nc1ccc(Cl)c(F)c1 (configuration not stated)	0.1
